From patent publication US20240335381A1, “Transdermal Microemulsion Delivery Systems for Alcohol-Soluble Species Including Nonderivatized Hormones” (Quicksilver Scientific, Inc., priority 2021, published 2024)
≈ marks a conversion by molar mass, not a printed value. Where two headings read alike, the source gives them in different places.

Key:
[1] = Solubility in ethanol and in MCT oil; format: physicochemical
Source text: An alcohol-soluble species is a species that is insoluble in water and has a greater solubility in ethanol than in medium chain triglyceride (MCT) oils. […] Alcohol-soluble species are preferably pharmacologically active, more preferably are a drug or a supplement, and neither include nor are water. Thus, liquids and solids may exist that technically are soluble in alcohol, but because they also are soluble in water or more or equivalently soluble in MCT oils than in ethanol are not “alcohol-soluble species”.
Solubilized means that the alcohol-soluble species to be delivered is in the solution of the droplet. […] Thus, if either average particle diameters greater than 200 nm or precipitated crystals visible to the naked eye form, the alcohol-soluble species is not solubilized in the solution of the droplet. If an alcohol-soluble species is not solubilized in the solution, it is insoluble in the solution. In many respects, solubility may be thought of as a concentration dependent continuum. For example, the following descriptive terms may be used to express solubility of a solute in a solvent (grams solid/mL of solvent) at 25 degrees Celsius: […]

[2] = cited from earlier work

SMILES | solubility level in MCT oil ([1]; MCT oil) | solubility level in ethanol ([1]; ethanol) | solubility ([1]; ethanol, organic solvent or mixture, read-out: solubility in ethanol) | solubility ([1]; medium chain triglyceride (MCT) oil, oil or lipid, MCT oil, read-out: solubility in MCT oil) | time within which the remainder is metabolized from the blood ([2]; after introduction) | share metabolized from the blood ([2]; within the first hour of introduction)
C[C@]12CC[C@H](O)CC1=CC[C@@H]1[C@@H]2CC[C@]2(C)C(=O)CC[C@@H]12 [DHEA, dehydroepiandrosterone (3-beta-hydroxyandrosteron-5-en-17-one)] | sparingly soluble | freely soluble | ~150 mg/mL (≈ 520 mM) | ~10 mg/mL (≈ 34.7 mM) | – | –
C[C@]12CC[C@H]3[C@@H](CCC4=CC(=O)CC[C@@]43C)[C@@H]1CC[C@@H]2O [testosterone] | – | – | – | – | three | about 90%
